# Assays:
# [1] = biological target: Recombinant human c-KIT kinase (Homo sapiens (Human), UniProt P10721); assay: c-KIT kinase chemiluminescence assay (ADP-Glo); assay type: biochemical; conditions: ATP 50 μM
# How it was run: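 Recombinant human c-KIT preincubated 30 min at RT in 40 mM Tris pH 7.5, 20 mM MgCl2, 0.1 mg/mL BSA, 50 μM DTT, then reacted 2 h at RT with ATP and polyEY substrate. ADP-Glo luminescence readout; activity normalized to high/low controls, IC50 and Hill coefficient from inhibitor-versus-normalized-response fit.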
# M-07e cells = assay: M-07e cellular assay (SCF-mediated cell proliferation); assay type: cell-based; conditions: Homo sapiens, 72 hours, CellTiter Glo
# How it was run: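 CellTiter Glo luminescence after 72 h compound exposure in SCF (EC90)-stimulated M-07e cells expressing endogenous human c-KIT.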
# Sequence of Recombinant human c-KIT kinase (P10721 26-976): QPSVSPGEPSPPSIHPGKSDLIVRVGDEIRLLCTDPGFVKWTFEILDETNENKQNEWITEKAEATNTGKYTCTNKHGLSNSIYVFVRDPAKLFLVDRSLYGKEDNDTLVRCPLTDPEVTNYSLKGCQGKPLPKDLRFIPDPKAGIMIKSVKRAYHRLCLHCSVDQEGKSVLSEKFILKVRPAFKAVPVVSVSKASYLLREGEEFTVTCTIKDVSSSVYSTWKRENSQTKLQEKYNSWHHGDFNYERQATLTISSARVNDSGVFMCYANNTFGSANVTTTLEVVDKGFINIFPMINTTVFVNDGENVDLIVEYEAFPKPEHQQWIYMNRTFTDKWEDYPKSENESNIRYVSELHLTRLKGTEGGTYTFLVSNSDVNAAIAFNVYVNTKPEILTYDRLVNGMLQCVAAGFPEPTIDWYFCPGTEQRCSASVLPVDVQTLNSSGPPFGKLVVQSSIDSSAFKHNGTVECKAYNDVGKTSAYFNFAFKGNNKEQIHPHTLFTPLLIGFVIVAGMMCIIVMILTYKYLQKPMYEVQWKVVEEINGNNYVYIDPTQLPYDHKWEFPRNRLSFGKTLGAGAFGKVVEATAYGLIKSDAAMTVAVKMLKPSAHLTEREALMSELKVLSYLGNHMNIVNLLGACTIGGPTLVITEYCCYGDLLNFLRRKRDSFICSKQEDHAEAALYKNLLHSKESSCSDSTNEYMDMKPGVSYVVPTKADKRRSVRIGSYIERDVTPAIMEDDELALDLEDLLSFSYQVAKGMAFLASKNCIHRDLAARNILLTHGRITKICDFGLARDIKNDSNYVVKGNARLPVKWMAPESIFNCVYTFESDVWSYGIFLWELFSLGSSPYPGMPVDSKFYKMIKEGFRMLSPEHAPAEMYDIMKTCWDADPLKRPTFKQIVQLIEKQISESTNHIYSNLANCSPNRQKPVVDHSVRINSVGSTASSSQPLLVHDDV
SMILES,IC50 [1],EC50 (M-07e cells)
Cc1ccc(-c2noc([C@H]3C[C@@H]3F)n2)cc1NC(=O)c1cnn2ccc(N3CC4(CCN(CC(F)(F)F)C4)C3)cc12 [Example 188],100 to 1000 nM,100 to 1000 nM
Cc1ccc(-c2noc([C@H]3C[C@@H]3F)n2)cc1NC(=O)c1cnn2ccc(N3C4COCC3C4)cc12 [Example 189],< 100 nM,< 100 nM
Cc1ccc(-c2noc([C@H]3C[C@@H]3F)n2)cc1NC(=O)c1cnn2ccc(N3CCN(C(=O)OC(C)(C)C)C[C@H]3C)cc12 [Example 190],100 to 1000 nM,100 to 1000 nM
Cc1ccc(-c2noc([C@H]3C[C@@H]3F)n2)cc1NC(=O)c1cnn2ccc(N3CCN(C(=O)OC(C)(C)C)C[C@@H]3C)cc12 [Example 191],< 100 nM,< 100 nM
Cc1ccc(-c2noc([C@H]3C[C@@H]3F)n2)cc1NC(=O)c1cnn2ccc(N3CC[C@@H](NC(=O)OC(C)(C)C)C3)cc12 [Example 192],100 to 1000 nM,100 to 1000 nM
Cc1ccc(-c2noc([C@H]3C[C@@H]3F)n2)cc1NC(=O)c1cnn2ccc(N3CC[C@H](NC(=O)OC(C)(C)C)C3)cc12 [Example 193],100 to 1000 nM,100 to 1000 nM
Cc1ccc(-c2noc([C@H]3C[C@@H]3F)n2)cc1NC(=O)c1cnn2ccc(N3CC4CC(C3)O4)cc12 [Example 194],< 100 nM,< 100 nM
Cc1ccc(-c2noc([C@H]3C[C@@H]3F)n2)cc1NC(=O)c1cnn2ccc(N3C[C@H]4C[C@@H]3CO4)cc12 [Example 199],< 100 nM,< 100 nM
Cc1ccc(-c2noc([C@H]3C[C@@H]3F)n2)cc1NC(=O)c1cnn2ccc(N3CCCC4(COC4)C3)cc12 [Example 201],< 100 nM,< 100 nM
Cc1ccc(-c2noc([C@H]3C[C@@H]3F)n2)cc1NC(=O)c1cnn2ccc(N3CC[C@H](N(C)C(=O)OC(C)(C)C)C3)cc12 [Example 203],< 100 nM,100 to 1000 nM
Cc1ccc(-c2noc([C@H]3C[C@@H]3F)n2)cc1NC(=O)c1cnn2ccc(N3C4CCC3CC(O)C4)cc12 (some centres unmarked) [Example 204],< 100 nM,< 100 nM
Cc1ccc(-c2noc([C@H]3C[C@@H]3F)n2)cc1NC(=O)c1cnn2cc(F)c(N3CC4(COC4)C3)cc12 [Example 206],100 to 1000 nM,100 to 1000 nM
Cc1ccc(-c2noc([C@H]3C[C@@H]3F)n2)cc1NC(=O)c1cnn2ccc(N3CC4(CN(C(=O)OC(C)(C)C)C4)C3)cc12 [Example 207],< 100 nM,100 to 1000 nM
Cc1ccc(-c2noc([C@H]3C[C@@H]3F)n2)cc1NC(=O)c1cnn2ccc(N3CC(C(=O)OC(C)(C)C)C3)cc12 [Example 208],100 to 1000 nM,100 to 1000 nM
Cc1ccc(-c2noc([C@H]3C[C@@H]3F)n2)cc1NC(=O)c1cnn2ccc(N3CC[C@H]3C(=O)OC(C)(C)C)cc12 [Example 209],100 to 1000 nM,100 to 1000 nM
Cc1ccc(-c2noc([C@H]3C[C@@H]3F)n2)cc1NC(=O)c1cnn2ccc(N3CC4CCC3CN4C(=O)OC(C)(C)C)cc12 (some centres unmarked) [Example 210],100 to 1000 nM,100 to 1000 nM
Cc1ccc(-c2noc([C@H]3C[C@@H]3F)n2)cc1NC(=O)c1cnn2ccc(N3CC4(CN(CC(F)F)C4)C3)cc12 [Example 212],< 100 nM,< 100 nM
Cc1ccc(-c2noc([C@H]3C[C@@H]3F)n2)cc1NC(=O)c1cnn2ccc(N3CC4(C3)CC(F)(F)C4)cc12 [Example 213],< 100 nM,< 100 nM
Cc1ccc(-c2noc([C@H]3C[C@@H]3F)n2)cc1NC(=O)c1cnn2ccc(N3CCC4(C3)CC4(F)F)cc12 (some centres unmarked) [Example 216],< 100 nM,< 100 nM
CC(=O)N1CC(Oc2ccn3ncc(C(=O)Nc4cc(-c5noc([C@H]6C[C@@H]6F)n5)ccc4C)c3c2)C1 [Example 218],100 to 1000 nM,100 to 1000 nM
Cc1ccc(-c2noc([C@H]3C[C@@H]3F)n2)cc1NC(=O)c1cnn2ccc(OC3COC3)cc12 [Example 219],< 100 nM,< 100 nM
Cc1ccc(-c2noc([C@H]3C[C@@H]3F)n2)cc1NC(=O)c1cnn2ccc(O[C@@H]3CCOC3)cc12 [Example 220],< 100 nM,100 to 1000 nM
Cc1ccc(-c2noc([C@H]3C[C@@H]3F)n2)cc1NC(=O)c1cnn2ccc(O[C@H]3CCOC3)cc12 [Example 221],< 100 nM,100 to 1000 nM
Cc1ccc(-c2noc([C@H]3C[C@@H]3F)n2)cc1NC(=O)c1cnn2ccc(N3CC(F)(C(F)(F)F)C3)cc12 [Example 223],100 to 1000 nM,100 to 1000 nM
COC1(OC)CC2(CN(c3ccn4ncc(C(=O)Nc5cc(-c6noc([C@H]7C[C@@H]7F)n6)ccc5C)c4c3)C2)C1 [Example 226],< 100 nM,< 100 nM

# Now from value to molecule, other results behind:
IC50 [1],SMILES,EC50 (M-07e cells)
< 100 nM,Cc1ccc(-c2noc([C@H]3C[C@@H]3F)n2)cc1NC(=O)c1cnn2ccc(N3CCNC[C@H]3C)cc12 [Example 195],100 to 1000 nM
< 100 nM,Cc1ccc(-c2noc([C@H]3C[C@@H]3F)n2)cc1NC(=O)c1cnn2ccc(N3CCNC[C@@H]3C)cc12 [Example 196],< 100 nM
100 to 1000 nM,Cc1ccc(-c2noc([C@H]3C[C@@H]3F)n2)cc1NC(=O)c1cnn2ccc(N3CC[C@@H](N)C3)cc12 [Example 197],< 100 nM
< 100 nM,Cc1ccc(-c2noc([C@H]3C[C@@H]3F)n2)cc1NC(=O)c1cnn2ccc(N3CC[C@H](N)C3)cc12 [Example 198],100 to 1000 nM
< 100 nM,Cc1ccc(-c2noc([C@H]3C[C@@H]3F)n2)cc1NC(=O)c1cnn2ccc(N3C[C@@H]4C[C@H]3CO4)cc12 [Example 200],< 100 nM
100 to 1000 nM,Cc1ccc(-c2noc([C@H]3C[C@@H]3F)n2)cc1NC(=O)c1cnn2ccc(N3CC4(CN(C)C4)C3)cc12 [Example 202],100 to 1000 nM
< 100 nM,CN[C@H]1CCN(c2ccn3ncc(C(=O)Nc4cc(-c5noc([C@H]6C[C@@H]6F)n5)ccc4C)c3c2)C1 [Example 205],100 to 1000 nM
< 100 nM,Cc1ccc(-c2noc([C@H]3C[C@@H]3F)n2)cc1NC(=O)c1cnn2ccc(N3CC4(CNC4)C3)cc12 [Example 211],100 to 1000 nM
< 100 nM,Cc1ccc(-c2noc([C@H]3C[C@@H]3F)n2)cc1NC(=O)c1cnn2ccc(N3CCO[C@H](C)C3)cc12 [Example 214],< 100 nM
< 100 nM,Cc1ccc(-c2noc([C@H]3C[C@@H]3F)n2)cc1NC(=O)c1cnn2ccc(N3CCO[C@@H](C)C3)cc12 [Example 215],< 100 nM
< 100 nM,Cc1ccc(-c2noc([C@H]3C[C@@H]3F)n2)cc1NC(=O)c1cnn2ccc(N3CC4(C3)CC4(F)F)cc12 [Example 217],< 100 nM
< 100 nM,Cc1ccc(-c2noc([C@H]3C[C@@H]3F)n2)cc1NC(=O)c1cnn2ccc(N3CC(F)(F)C3)cc12 [Example 222],100 to 1000 nM
< 100 nM,Cc1ccc(-c2noc([C@H]3C[C@@H]3F)n2)cc1NC(=O)c1cnn2ccc(N3C[C@@H](F)[C@@H]3C)cc12 [Example 224],< 100 nM
< 100 nM,Cc1ccc(-c2noc([C@H]3C[C@@H]3F)n2)cc1NC(=O)c1cnn2ccc(N3CC(C(F)(F)F)C3)cc12 [Example 225],100 to 1000 nM
< 100 nM,Cc1ccc(-c2noc([C@H]3C[C@@H]3F)n2)cc1NC(=O)c1cnn2ccc(N3CC4(CCC4)C3)cc12 [Example 227],100 to 1000 nM
